Experimental data: US9540691B2, “Assays and methods for selecting a treatment regimen for a subject with depression” (THE GENERAL HOSPITAL CORPORATION, priority 2011, dated 2017)
Where two headings read alike, the source gives them in different places.

Legend:
[1] = system: patients with major depressive disorder (MDD) resistant to treatment with SSRIs
From the text: Using the sequential parallel design […] For those randomly assigned to the placebo/placebo sequence, both responders and non-responders to placebo during the first phase (n=25) remain on placebo during the second phase. […] Data from the previous double-blind, placebo-controlled study (Trial 1) can be pooled into the instant study (Trial 2) to provide a more accurate estimate of the placebo effect size, with a weighted average from the two Phases 1 (one from Trial 1 and one from Trial 2) and two Phases 2 (one from Trial 1 and one from Trial 2).
The primary efficacy measure can include the change in 17-item Hamilton Rating Scale for Depression (HAM-D-17) score. […] A remission is, for example, defined as a HAM-D-17 score less than 8 at endpoint. Secondary measures of efficacy can include change in CGI-severity, with “clinical response defined” as CGI-S of 1 or 2 at endpoint. Patients with a CGI-I score greater than 5 at any post baseline visit or a 50 percent or greater worsening of depressive symptoms from baseline to that visit are discontinued from the study. Subjects are also discontinued from the study with any emergence of suicidality, homicidality, mania, or psychosis. Additional exemplary instruments that can be administered according to the study schedule include the following: • (1) Structured Clinical Interview for DSM-IV: The SCID-I/P, administered by the clinician, proceeds by modules to diagnose the different Axis I disorders. Questions are asked exactly as written, and each is based on the individual criteria from DSM-IV. Answers are generally rated on a scale of 1-3 (1=doubtful, 2=probable, 3=definite), and, based on the number of positive answers, a diagnosis is determined by a clinician. While the entire SCID-UP is administered at screen, the mood module is administered at each follow up visit. • (2) The MGH Antidepressant Treatment History Questionnaire (MGH-ATR): The MGH-ATR provides specific criteria for the adequate dose and adequate length of a trial for it to be considered a failure, thus allowing clinicians to systematically collect data aimed at assessing the degree of treatment-resistance of the current major depressive episode. • (3) The 28-item Hamilton Depression Scale (HAM-D-28): This version allows scoring of the HAM-D-17, 21-, 25-, and 28-item scales. This instrument is completed by the clinician by using a structured interview and defined anchor points, and aims to quantify the degree of depression over the past 7 days. The HAM-D is the most widely studied instrument for depression, and its reliability and validity are high. • (4) Clinical Global Impressions-Severity and Improvement (CGI-S, CGI-I): These two instruments are scored 1-7 by the clinician based on assessment of the patient's clinical status. They measure, based on history and scores on other instruments: a) Depressive severity (CGI-S) and b) Clinical Improvement (CGI-I). […] Safety Measurements
Data are entered and error-checked at each clinical site involved in the study. Study staff and subjects may have the option to enter self-evaluations into the system directly using DatStat Illume™. The process of data entry is supervised by the DCRP staff. Once the data set is entered and checked, analyses are conducted. Both a completer analysis of all patients finishing the trial and an intent-to-treat analysis examining all patients enrolled into the trial are used to define the severity of depression at endpoint. Examination of both study completers and all patients randomized can provide the broadest assessment of the effects of treatment in trials of such kind. The data from Trial 2 can be pooled with those from Trial 1 with the sequential parallel comparison design, to provide an estimate of the placebo response based on a larger sample size. […] Let p1, q1 be the response rates to the first administration of drug and placebo respectively and let p2, q2 be the responses rates to the second treatment.

[2] = system: patients with major depressive disorder (MDD) resistant to treatment with SSRIs; remark: listed apart in the source
Protocol: Documentation of the presence of any side effect or adverse event is completed at every visit using the SAFTEE-SI. Subjects can contact a clinician at any time between visits concerning adverse events or worsening of symptoms. Suicidal ideation is assessed at each visit. Subjects who are felt by the study clinician to be at high risk for suicide are discontinued from the study and referred for hospitalization and further treatment if clinically indicated (See Tables 4 & 5 below).
One-way analysis of variance can be used to assess differences in total number of SAFTEE-SI AEs between baseline and endpoint.

[3] = 7.5 mg/day adjunct to SSRI, Phase 1
[4] = 7.5 mg/day adjunct to SSRI, Phase 2 (Phase 1 completers/non-responders only)
[5] = 7.5 mg/day adjunct to SSRI, pooled Phases 1 and 2 (SPCD)
[6] = L-methylfolate 15 mg (n = 42) with SSRI
[7] = L-methylfolate 15 mg vs placebo

CN1c2c(nc(N)[nH]c2=O)NC[C@@H]1CNc1ccc(C(=O)N[C@@H](CCC(=O)O)C(=O)O)cc1 [6(S)-5-MTHF, 6(S)-5-methyltetrahydrofolate]
efficacy as an adjunct to the SSRIs (in words) ([1]; 7.5 mg/day): not effective
CGI-S Mean score reduction (SD) [1, 3]: −0.5 (0.9)
HDRS-17 % Remission [1, 3]: 11.1% (4)
HDRS-17 % Response [1, 3]: 19.8% (7)
HDRS-17 Mean score reduction (SD) [1, 3]: −4.3 (5.0)
QIDS-SR % Remission [1, 3]: 0.0% (0)
QIDS-SR % Responsive [1, 3]: 25.0% (9)
QIDS-SR Mean score reduction (SD) [1, 3]: −4.6 (5.1)
CGI-S Mean score reduction (SD) [1, 4]: −0.5 (0.7)
HDRS-17 % Remission [1, 4]: 14.2% (5)
HDRS-17 % Response [1, 4]: 17.1% (6)
HDRS-17 Mean score reduction (SD) [1, 4]: −3.1 (4.2)
QIDS-SR % Remission [1, 4]: 8.5% (3)
QIDS-SR % Responsive [1, 4]: 8.5% (3)
QIDS-SR Mean score reduction (SD) [1, 4]: 4.8 (4.1)
CGI-S Mean score reduction [1, 5]: −0.53
HDRS-17 Mean score reduction [1, 5]: −3.70
QIDS-SR % Remission [1, 5]: 4.3%
QIDS-SR % Responsive [1, 5]: 19.8%
QIDS-SR Mean score reduction [1, 5]: −0.25
increase in response and remission rate compared to placebo with SSRIs ([1]; 15 mg/day in second phase, drug/drug sequence): at least 2 fold
response and remission rate ([1]; dose increased from 7.5 to 15 mg/day in second phase, drug/drug sequence, placebo with SSRIs 9%, p=0.1): 24%
Cardiovascular side effects, Frequency (%) [2, 6]: (0%)
Cardiovascular side effects, Frequency (number of subjects) [2, 6]: 0
Gastrointestinal side effects, Frequency (number of subjects) [2, 6]: 7
Infectious side effects, Frequency (number of subjects) [2, 6]: 5
Miscellaneous side effects, Frequency (%) [2, 6]: (2.4%)
Miscellaneous side effects, Frequency (number of subjects) [2, 6]: 1
Psychological side effects, Frequency (%) [2, 6]: (9.5%)
Psychological side effects, Frequency (number of subjects) [2, 6]: 4
Sexual side effects, Frequency (%) [2, 6]: (2.4%)
Sexual side effects, Frequency (number of subjects) [2, 6]: 1
Sleep side effects, Frequency (%) [2, 6]: (2.4%)
Sleep side effects, Frequency (number of subjects) [2, 6]: 1
Somatic side effects, Frequency (number of subjects) [2, 6]: 6
Cardiovascular side effects, NNH [2, 7]: =placebo
Gastrointestinal side effects, NNH [2, 7]: 53
Infectious side effects, NNH [2, 7]: <placebo
Miscellaneous side effects, NNH [2, 7]: <placebo
Psychological side effects, NNH [2, 7]: <placebo
Sexual side effects, NNH [2, 7]: 98
Sleep side effects, NNH [2, 7]: <placebo
Somatic side effects, NNH [2, 7]: <placebo
number of adverse events by SAFTEE-SI vs placebo (in words) ([2]; SSRI + 15 mg/day): no significant differences
discontinuation from the study due to overall adverse side-effects or exclusion events (in words) ([2]; Trial 2, FIG. 3E): no difference
